Columns and labels:
bed bugs [1] = assay: Example 2: bed bug mortality after exposure to solutions of minimum risk (25(b)) pesticides via artificial membrane feeding system; type: in vivo; conditions: for efficacy against bed bugs: exposed to lower concentrations of the solutions; for level of efficacy against bed bugs relative to the other solutions: within 120 hours of exposure
Experimental: To determine whether consumption of ingredients listed under section 25(b) of the Federal Insecticide, Fungicide, and Rodenticide Act kills bed bugs, several mixtures of salt, citric acid, potassium sorbate, sodium lauryl sulfate (SLS), castor oil, sesame oil, cinnamon oil, garlic oil, citronella oil, lemongrass oil, peppermint oil, cedar oil, clove oil, rosemary oil, thyme oil, geranium oil, geraniol, and flaxseed oil were made. Oil based solutions were dissolved into 2% sodium lauryl sulfate (“SLS”) and water mixtures. Remaining ingredients were dissolved in water. Concentrations of 1%, 5%, and 50% of each solution were made. Control solutions consisted of either human blood or water depending on the test solutions in each experiment. Groups of twenty bed bugs were offered each solution via the artificial membrane feeding system described above for 60 minutes. […] Post-exposure mortality was recorded at 24 hours and 120 hours after exposure to the active solution.

bed bugs [2] = assay: Example 1: post-consumption mortality of bed bugs fed on solutions via artificial membrane feeding system; type: in vivo; conditions: solution of 0.05 grams boric acid and 4.95 milliliters phosphate buffer pH 7.4; within 24 hours
Text: Boric acid is an insecticidal dust that causes death upon consumption by most insects with chewing mouthparts. Bed bugs have blood-feeding, piercing/sucking mouthparts that limit their ability to pick up and consume the insecticidal dust in its powder form. To determine whether consumption of boric acid kills bed bugs, several mixtures of boric acid and phosphate buffer, DUPONT™ ADVION™ fire ant bait including indoxacarb and phosphate buffer, and just phosphate buffer solutions were made. […] Multiple groups of ten bed bugs fed on the solutions via artificial membrane feeding systems as described above, and post-consumption mortality was recorded. […]

bed bugs [3] = tested on: bed bugs
Experimental: For the following Examples an artificial membrane feeding station was prepared and used. […] The Parafilm™ was stretched to <5.0 mils thick. The liquid bait identified in the various Examples below was placed in the sealed container.
Each solution was offered to groups of 20 bed bugs via the artificial feeding stations described above. After approximately 60 minutes, the containers of 20 bed bugs were removed from the feeding station and the number that fed to completion was recorded. Post-exposure mortality was recorded at 4 hours, 24 hours and/or 48 hours after exposure to the active solution.

bed bugs [4] = assay: Example 3: feeding and mortality of bed bugs offered varying concentrations of sodium chloride in water; type: in vivo
Text: To determine optimum concentrations of sodium chloride solutions (for both feeding and mortality), bed bugs were offered the following concentrations sodium chloride diluted in water on a weight percent basis: 0, 0.05, 0.25, 0.5%, 1%, 2%, 3%, 4%, 5%, 6%, 7%, 8%, 9%, 10%, 12%, 14%, 16%, 18%, 20%, 25%, 30%, 35%, 40%, 50%, 60%, 70%, 80%, 90%, and 100%.

## CCCCCCCCCCCCOS(=O)(=O)[O-].[Na+] [SLS, sodium lauryl sulfate]
Bed bugs [1]
  efficacy against bed bugs: some efficacy
  level of efficacy against bed bugs relative to the other solutions: highest observed levels of efficacy

## OB(O)O [boric acid]
Bed bugs [2]
  efficacy on bed bugs that consumed the solution: 100%
Bed bugs [3]; 5% boric acid added to the sodium chloride solution
  increase in mortality: 25-60%
Bed bugs [3]; addition of 5% boric acid
  effect on mortality compared to sodium chloride base solutions without boric acid: significantly enhanced mortality

## O=C(O)CC(O)(CC(=O)O)C(=O)O [citric acid]
Bed bugs [1]
  efficacy against bed bugs: some efficacy
  level of efficacy against bed bugs relative to the other solutions: highest observed levels of efficacy

## CC(C)=CCC/C(C)=C/CO [geraniol oil, geraniol]
Bed bugs [1]
  efficacy against bed bugs: some efficacy

## C/C=C/C=C/C(=O)[O-].[K+] [potassium sorbate]
Bed bugs [1]; within 120 hours, bed bugs that consumed the solutions, concentrations of 1%, 5%, 50% made
  efficacy: 0%

## [Cl-].[Na+] [sodium chloride]
Bed bugs [4]; all sodium chloride solutions up to 70% wt. sodium chloride
  mortality: some level of mortality
Bed bugs [4]; just from bed bugs tasting the solutions
  sodium chloride concentration up to which death was recorded: up to 70 weight percent
Bed bugs [4]; sodium chloride in water, offered about 60 minutes
  sodium chloride concentration up to which bed bugs feed to completion or engorge: up to 5%
Bed bugs [4]; solutions containing 6-12% wt. sodium chloride, within 48 hours
  highest levels of mortality: up to 70%
Bed bugs [4]; solutions of sodium chloride and water
  sodium chloride concentration up to which bed bugs fully engorge themselves: up to 5 weight percent
Bed bugs [1]
  efficacy against bed bugs: some efficacy
  level of efficacy against bed bugs relative to the other solutions: highest observed levels of efficacy

From patent US9295247B2, “Method of using insect bait station” (ECOLAB USA INC., priority 2008, dated 2016)
